This passage reports IC50 results from patent publication US20130060024A1, “Compounds useful for treating neurodegenerative disorders” (SATORI PHARMACEUTICALS, INC., priority 2011, published 2013).

Common to all, as to assay type: cell-based
Common to all, as to conditions: Homo sapiens

The test system of one assay is Aβ-42. The experiment in a line: Aβ-42 MSD 3-PLEX ELISA, conditioned media of 2B7 cells. As for the experimental part:
(§1) Assays were conducted to determine the ability of a Compound of Formula I to modulate […], […], and Aβ-38. Human (6E10) Ab 3-PLEX ELISA kits were purchased from Meso Scale Discovery Labs, 9328 Gaither Road, Gaithersburg, Md. 20877 (Catalog Number […]-3). Plates with capture antibodies were blocked for 1-2 hours at room temperature with 150 μL of the manufactures blocking reagent. Cultured 2B7 cells in 96 well plate with 250 μL of media per well until confluent; Prepared serial dilutions of compounds in DMSO at 100× the final desired concentration; Washed wells with 2B7 cells 1× with 250 μL of media; Diluted DMSO stocks 1:100 into media: Added 250 μL of media containing compounds (1% DMSO) to wells with 2B7 cells for 5 hours at 37° C. Diluted conditioned media: 1 part media with 1% DMSO and 1 part blocking buffer; 150 μL of the 250 μL of conditioned media were used. Seven point standard curve samples were prepared that contained Aβ-42, Aβ-40, and Aβ-38. The highest concentration of Aβ-42 and Aβ-38 was 3,000 pg/mL and the highest concentration of Aβ-40 was 10,000 pg/mL. Subsequent serial dilutions were 1:3 and the final composition of each sample was 1 part blocking buffer and 1 part cell medium containing 1% DMSO. Blocked plates are washed 5× with MSD wash buffer with a plate washer; 25 μL of detection antibody and blocker G reagent in MSD blocking solution was added; 25 μL of samples (1 part conditioned media containing 1% DMSO and 1 part MSD blocking buffer) were then added; Plates were incubated overnight at 4 degrees C. or 2 hours at room temperature. Washed wells 5× with MSD wash buffer; Added 150 μL 2×MSD read buffer; Read with MSD imager. Aβ peptide levels for each peptide were calculated from the standard curve using the MSD software provided with the MSD 2400 Imager. Percent vehicle values for each compound dosage were then calculated and fit to a 4 parameter curve generating IC50 values.

Another assay has as its system Aβ-38. Put plainly: Aβ-38 MSD 3-PLEX ELISA, conditioned media of 2B7 cells. How it is done:
as §1

In another assay the test system is Aβ-40. Put plainly: Aβ-40 MSD 3-PLEX ELISA, conditioned media of 2B7 cells. As for the experimental part: as §1
Setting [1] is: 2B7 cells, 5 hours at 37° C., 1% DMSO, read-out: Aβ 42 IC50.
The mark [2] stands for this setting: 2B7 cells, 5 hours at 37° C., 1% DMSO, read-out: Aβ 38 IC50.
[3] abbreviates: 5 h, read-out: Aβ 42 DR IC50 Inflection.
Setting [4] is: 5 h, read-out: Aβ 40 DR IC50 Inflection.
Where [5] appears, read: 2B7 cells, 5 hours at 37° C., 1% DMSO, read-out: Aβ 40 IC50.
The mark [6] stands for this setting: 5 h, read-out: Aβ 38 DR IC50 Inflection.

pIC50: −log10 of the molar value. Read-outs that look alike come from different tables or passages of the source.

As for `CCO[C@@H]([C@H]1C[C@@H](C)[C@H]2[C@H](O1)[C@H](O)[C@@]1(C)[C@@H]3CC[C@H]4C(C)(C)[C@@H](OC(=O)NCCNS(=O)(=O)C(F)(F)F)CC[C@@]45C[C@@]35CC[C@]21C)C(C)(C)O` [Compound I-1], the pIC50 was 6.00 to 6.30 in the assay with Aβ-42 (setting [1]) and 5.30 to 6.00 with Aβ-38 (setting [2]).

`CCO[C@@H]([C@H]1C[C@@H](C)[C@H]2[C@H](O1)[C@H](O)[C@@]1(C)[C@@H]3CC[C@H]4C(C)(C)[C@@H](OC(=O)N(C)C5CN(C)C5)CC[C@@]45C[C@@]35CC[C@]21C)C(C)(C)O` [Compound I-2]: the pIC50 is more than 7.00 in the assay with Aβ-42 (setting [3]); more than 7.00 in the assay on Aβ-42 (setting [1]); less than 5.30 in the assay with Aβ-40 (setting [4]); 5.30 to 6.00 with Aβ-40 (setting [5]); more than 7.00 in the assay with Aβ-38 (setting [6]); 6.30 to 7.00 in the assay with Aβ-38 (setting [2]).

For the compound `CCO[C@@H]([C@H]1C[C@@H](C)[C@H]2[C@H](O1)[C@H](O)[C@@]1(C)[C@@H]3CC[C@H]4C(C)(C)[C@@H](OC(=O)N5CCNC(C(F)(F)F)C5)CC[C@@]45C[C@@]35CC[C@]21C)C(C)(C)O` (some centres unmarked) [Compound I-3], the pIC50 was 6.30 to 7.00 in the assay on Aβ-42 (setting [1]) and 5.30 to 6.00 in the assay with Aβ-38 (setting [2]).

In the case of `CCO[C@@H]([C@H]1C[C@@H](C)[C@H]2[C@H](O1)[C@H](O)[C@@]1(C)[C@@H]3CC[C@H]4C(C)(C)[C@@H](OC(=O)N5CCN(C6COC6)CC5)CC[C@@]45C[C@@]35CC[C@]21C)C(C)(C)O` [Compound I-4], the negative-log IC50 (pIC50) was 6.30 to 7.00 with Aβ-42 (setting [3]), 6.30 to 7.00 with Aβ-42 (setting [1]), less than 5.30 in the assay with Aβ-40 (setting [5]) and 5.30 to 6.00 in the assay on Aβ-38 (setting [2]).

Take `CCO[C@@H]([C@H]1C[C@@H](C)[C@H]2[C@H](O1)[C@H](O)[C@@]1(C)[C@@H]3CC[C@H]4C(C)(C)[C@@H](OC(=O)N5CCN(CC(=O)O)CC5)CC[C@@]45C[C@@]35CC[C@]21C)C(C)(C)O` [Compound I-5]: the pIC50 in the assay on Aβ-42 (setting [3]) was 6.30 to 7.00; in the assay on Aβ-42 (setting [1]) it was 6.30 to 7.00; in the assay with Aβ-40 (setting [5]), less than 5.30.

On to `CCO[C@@H]([C@H]1C[C@@H](C)[C@H]2[C@H](O1)[C@H](O)[C@@]1(C)[C@@H]3CC[C@H]4C(C)(C)[C@@H](OC(=O)N(C)CC(=O)O)CC[C@@]45C[C@@]35CC[C@]21C)C(C)(C)O` [Compound I-6], for which, in the assay on Aβ-42 (setting [1]), the pIC50 was 6.00 to 6.30.

Consider `CCO[C@@H]([C@H]1C[C@@H](C)[C@H]2[C@H](O1)[C@H](O)[C@@]1(C)[C@@H]3CC[C@H]4C(C)(C)[C@@H](OC(=O)N5CCN(CCOC)CC5)CC[C@@]45C[C@@]35CC[C@]21C)C(C)(C)O` [Compound I-7], for which the values for the pIC50 in the assay on Aβ-42 (setting [3]), in the assay on Aβ-42 (setting [1]) and in the assay on Aβ-38 (setting [2]) were 6.30 to 7.00, 6.30 to 7.00 and 6.00 to 6.30, respectively.

Turning to `CCO[C@@H]([C@H]1C[C@@H](C)[C@H]2[C@H](O1)[C@H](O)[C@@]1(C)[C@@H]3CC[C@H]4C(C)(C)[C@@H](OC(=O)N5CCN(C)CC5)CC[C@@]45C[C@@]35CC[C@]21C)C(C)(C)O` [Compound I-8], the pIC50 in the assay with Aβ-42 (setting [3]) is more than 7.00; in the assay with Aβ-42 (setting [1]) it was more than 7.00; in the assay on Aβ-40 (setting [4]) it was less than 5.30; in the assay with Aβ-40 (setting [5]), 5.30 to 6.00; with Aβ-38 (setting [6]), more than 7.00; in the assay on Aβ-38 (setting [2]), 6.30 to 7.00.

Consider `CCO[C@@H]([C@H]1C[C@@H](C)[C@H]2[C@H](O1)[C@H](O)[C@@]1(C)[C@@H]3CC[C@H]4C(C)(C)[C@@H](OC(=O)N5CC(NC)C5)CC[C@@]45C[C@@]35CC[C@]21C)C(C)(C)O` [Compound I-9], for which the pIC50 in the assay on Aβ-42 (setting [3]) is 6.30 to 7.00; in the assay with Aβ-42 (setting [1]), 6.30 to 7.00; in the assay with Aβ-40 (setting [5]), 5.30 to 6.00; in the assay with Aβ-38 (setting [6]), 6.30 to 7.00; in the assay on Aβ-38 (setting [2]) it was 6.30 to 7.00.

For `CCO[C@@H]([C@H]1C[C@@H](C)[C@H]2[C@H](O1)[C@H](O)[C@@]1(C)[C@@H]3CC[C@H]4C(C)(C)[C@@H](OC(=O)N5CCNCC5)CC[C@@]45C[C@@]35CC[C@]21C)C(C)(C)O` [Compound I-10], the values for the pIC50 in the assay with Aβ-42 (setting [1]) and with Aβ-38 (setting [2]) were more than 7.00 and 6.30 to 7.00, respectively.

Regarding `CCO[C@@H]([C@H]1C[C@@H](C)[C@H]2[C@H](O1)[C@H](O)[C@@]1(C)[C@@H]3CC[C@H]4C(C)(C)[C@@H](OC(=O)NCCN(C)C)CC[C@@]45C[C@@]35CC[C@]21C)C(C)(C)O` [Compound I-11], the pIC50 with Aβ-42 (setting [3]) and in the assay on Aβ-42 (setting [1]) was 6.30 to 7.00 each time.

Regarding `CCO[C@@H]([C@H]1C[C@@H](C)[C@H]2[C@H](O1)[C@H](O)[C@@]1(C)[C@@H]3CC[C@H]4C(C)(C)[C@@H](OC(=O)NCCN5CCOCC5)CC[C@@]45C[C@@]35CC[C@]21C)C(C)(C)O` [Compound I-12], the pIC50 was 6.30 to 7.00 in the assay with Aβ-42 (setting [3]), 6.30 to 7.00 with Aβ-42 (setting [1]), less than 5.30 with Aβ-40 (setting [5]) and 5.30 to 6.00 in the assay on Aβ-38 (setting [2]).

In the case of `CCO[C@@H]([C@H]1C[C@@H](C)[C@H]2[C@H](O1)[C@H](O)[C@@]1(C)[C@@H]3CC[C@H]4C(C)(C)[C@@H](OC(=O)NCCN5CC(OC)C5)CC[C@@]45C[C@@]35CC[C@]21C)C(C)(C)O` [Compound I-13], the results for the pIC50 in the assay with Aβ-42 (setting [3]), in the assay with Aβ-42 (setting [1]) and in the assay with Aβ-38 (setting [2]) were 6.30 to 7.00, 6.30 to 7.00 and 5.30 to 6.00, respectively.

Take `CCO[C@@H]([C@H]1C[C@@H](C)[C@H]2[C@H](O1)[C@H](O)[C@@]1(C)[C@@H]3CC[C@H]4C(C)(C)[C@@H](OC(=O)NCCN5CC(F)C5)CC[C@@]45C[C@@]35CC[C@]21C)C(C)(C)O` [Compound I-14]: the pIC50 in the assay with Aβ-42 (setting [3]) and with Aβ-42 (setting [1]) was 6.30 to 7.00 throughout.

Regarding `CCO[C@@H]([C@H]1C[C@@H](C)[C@H]2[C@H](O1)[C@H](O)[C@@]1(C)[C@@H]3CC[C@H]4C(C)(C)[C@@H](OC(=O)NCCN5CC(O)C5)CC[C@@]45C[C@@]35CC[C@]21C)C(C)(C)O` [Compound I-15], the pIC50 in the assay on Aβ-42 (setting [3]) and in the assay with Aβ-42 (setting [1]) was 6.30 to 7.00 in each case.

For `CCO[C@@H]([C@H]1C[C@@H](C)[C@H]2[C@H](O1)[C@H](O)[C@@]1(C)[C@@H]3CC[C@H]4C(C)(C)[C@@H](OC(=O)NCCN5CCC5)CC[C@@]45C[C@@]35CC[C@]21C)C(C)(C)O` [Compound I-16], the pIC50 with Aβ-42 (setting [3]) and in the assay with Aβ-42 (setting [1]) was 6.30 to 7.00 throughout.

As for `CCO[C@@H]([C@H]1C[C@@H](C)[C@H]2[C@H](O1)[C@H](O)[C@@]1(C)[C@@H]3CC[C@H]4C(C)(C)[C@@H](OC(=O)NCCN5CCN(C6COC6)CC5)CC[C@@]45C[C@@]35CC[C@]21C)C(C)(C)O` [Compound I-17], the pIC50 is 6.30 to 7.00 with Aβ-42 (setting [3]), 6.30 to 7.00 in the assay with Aβ-42 (setting [1]), 5.30 to 6.00 in the assay on Aβ-40 (setting [5]) and 6.30 to 7.00 with Aβ-38 (setting [2]).

As for `CCO[C@@H]([C@H]1C[C@@H](C)[C@H]2[C@H](O1)[C@H](O)[C@@]1(C)[C@@H]3CC[C@H]4C(C)(C)[C@@H](OC(=O)NCCN5CCN(C6CCC6)CC5)CC[C@@]45C[C@@]35CC[C@]21C)C(C)(C)O` [Compound I-19], the pIC50 with Aβ-42 (setting [3]) and in the assay on Aβ-42 (setting [1]) was 6.30 to 7.00 each time.

`CCO[C@@H]([C@H]1C[C@@H](C)[C@H]2[C@H](O1)[C@H](O)[C@@]1(C)[C@@H]3CC[C@H]4C(C)(C)[C@@H](OC(=O)N5CC(N6CCC6)C5)CC[C@@]45C[C@@]35CC[C@]21C)C(C)(C)O` [Compound I-20]: the pIC50 in the assay with Aβ-42 (setting [1]) was more than 7.00; in the assay with Aβ-38 (setting [2]), 6.30 to 7.00.

As for `CCO[C@@H]([C@H]1C[C@@H](C)[C@H]2[C@H](O1)[C@H](O)[C@@]1(C)[C@@H]3CC[C@H]4C(C)(C)[C@@H](OC(=O)N5CC(N6CC(OC)C6)C5)CC[C@@]45C[C@@]35CC[C@]21C)C(C)(C)O` [Compound I-21], the pIC50 in the assay on Aβ-42 (setting [3]) is 6.30 to 7.00; with Aβ-42 (setting [1]) it was 6.30 to 7.00; in the assay on Aβ-38 (setting [2]) it was 6.00 to 6.30.

Take `CCO[C@@H]([C@H]1C[C@@H](C)[C@H]2[C@H](O1)[C@H](O)[C@@]1(C)[C@@H]3CC[C@H]4C(C)(C)[C@@H](OC(=O)NC5CN(C6CN(C7CCC7)C6)C5)CC[C@@]45C[C@@]35CC[C@]21C)C(C)(C)O` [Compound I-23]: the pIC50 in the assay with Aβ-42 (setting [1]) is 6.30 to 7.00; in the assay on Aβ-38 (setting [2]), 6.00 to 6.30.

With `CCO[C@@H]([C@H]1C[C@@H](C)[C@H]2[C@H](O1)[C@H](O)[C@@]1(C)[C@@H]3CC[C@H]4C(C)(C)[C@@H](OC(=O)NCCN5CCN(CC(F)F)CC5)CC[C@@]45C[C@@]35CC[C@]21C)C(C)(C)O` [Compound I-24], the pIC50 is 6.30 to 7.00 with Aβ-42 (setting [3]), 6.30 to 7.00 in the assay on Aβ-42 (setting [1]) and 5.30 to 6.00 in the assay on Aβ-40 (setting [5]).
